Target: Human V1b receptor (Homo sapiens (Human), UniProt P47901)
Assay: Binding Test for V1b Receptor ([3H]AVP, crude membrane preparation of 293FT cells)
Details: inhibition of [3H]AVP binding (0.4 to 1 nmol/L), room temperature, 60 minutes
Experimental: Binding Test for V1b Receptor
Human V1b receptor was transiently expressed in 293FT cells (Invitrogen). The cells were collected and then homogenated in a 15 mmol/L tris-hydrochloric acid buffer (pH 7.4 and containing 2 mmol/L magnesium chloride, 0.3 mmol/L ethylenediaminetetracetic acid, and 1 mmol/L glycol ether diaminetetraacetic acid). The resulting homogenate was centrifuged at 50,000×g at 4° C. for 20 minutes. The precipitate was resuspended in a 75 mmol/L tris-hydrochloric acid buffer (pH 7.4 and containing 12.5 mmol/L magnesium chloride, 0.3 mmol/L ethylenediaminetetracetic acid, 1 mmol/L glycol ether diaminetetraacetic acid, and 250 mmol/L sucrose) to give a crude membrane preparation, which was stored at −80° C. until the binding test was initiated. In the binding test, the crude membrane preparation was diluted with a 50 mmol/L tris-hydrochloric acid buffer (pH 7.4 and containing 10 mmol/L magnesium chloride and 0.1% bovine serum albumin) and mixed with each test compound and [^3H]AVP (final concentration: 0.4 to 1 nmol/L), followed by incubation at room temperature for 60 minutes. The test compound was serially diluted with DMSO so that it would have final concentrations of 0.01 nmol/L to 1 μmol/L at the time of mixing. After the incubation, the mixture was suction filtered through a GF/C filter that was preliminarily impregnated with 0.3% polyethyleneimine. The GF/C filter was dried and after adding a scintillator, the residual radioactivity on the filter was measured using TopCount (PerkinElmer Inc.). The radioactivity in the presence of unlabeled AVP at […] was defined as 0%, and the radioactivity in the absence of unlabeled AVP was defined as 100%. A dose-response curve was plotted from radio activities in the presence of a test compound at various concentrations, and the 50% inhibitory concentration (IC50 value) of the test compound was calculated.

Chain of Human V1b receptor (P47901 whole entry): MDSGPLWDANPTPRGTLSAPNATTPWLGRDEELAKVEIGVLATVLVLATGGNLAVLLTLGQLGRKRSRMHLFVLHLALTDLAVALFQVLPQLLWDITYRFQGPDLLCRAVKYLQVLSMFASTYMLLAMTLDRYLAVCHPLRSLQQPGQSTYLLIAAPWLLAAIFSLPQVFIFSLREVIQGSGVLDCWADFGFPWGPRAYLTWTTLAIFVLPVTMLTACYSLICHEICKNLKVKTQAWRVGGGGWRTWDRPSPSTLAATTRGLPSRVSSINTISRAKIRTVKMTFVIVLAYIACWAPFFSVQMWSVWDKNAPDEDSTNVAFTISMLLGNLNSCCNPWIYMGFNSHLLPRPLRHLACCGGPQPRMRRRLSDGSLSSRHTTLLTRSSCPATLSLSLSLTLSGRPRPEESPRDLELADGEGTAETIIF

SMILES	IC50 [nM]
CC(C)NC(=O)Cn1cc(C(=O)N2CCC(CCN3CCOCC3)C2)nc1-c1cccc(Cl)c1 (stereo not shown) [Example A-49, 2-[2-(3-chlorophenyl)-4-({3-[2-(morpholin-4-yl)ethyl]pyrrolidin-1-yl}carbonyl)-1H-imidazol-1-yl]-N-(propan-2-yl)acetamide]	100 to 1000
CC(C)NC(=O)Cn1nc(-c2ccc(CCN3C4CCC3COC4)cc2)nc1-c1cccc(Cl)c1 [Example B-01, 2-[5-(3-chlorophenyl)-3-{4-[2-(3-oxa-8-azabicyclo[3.2.1]oct-8-yl)ethyl]phenyl}-1H-1,2,4-triazol-1-yl]-N-(propan-2-yl)acetamide]	1.4
CC(C)NC(=O)Cn1nc(-c2ccc(CN3CCN(C)CC3)cc2)nc1-c1cccc(Cl)c1 [Example B-03, 2-[5-(3-chlorophenyl)-3-{4-[(4-methylpiperazin-1-yl)methyl]phenyl}-1H-1,2,4-triazol-1-yl]-N-(propan-2-yl)acetamide]	100 to 1000
CC(C)NC(=O)Cn1nc(-c2ccc(CCN3C4CCC3COC4)cn2)nc1-c1cccc(Cl)c1 [Example B-04, 2-[5-(3-chlorophenyl)-3-{5-[2-(3-oxa-8-azabicyclo[3.2.1]oct-8-yl)ethyl]pyridin-2-yl}-1H-1,2,4-triazol-1-yl]-N-(propan-2-yl)acetamide]	7.4
COc1cccc(-c2nc(-c3ccc(CCN4C5CCC4COC5)cn3)nn2CC(=O)NC(C)C)c1 [Example B-05, 2-[5-(3-methoxyphenyl)-3-{5-[2-(3-oxa-8-azabicyclo[3.2.1]oct-8-yl)ethyl]pyridin-2-yl}-1H-1,2,4-triazol-1-yl]-N-(propan-2-yl)acetamide]	11
COc1cc(-c2nc(-c3ccc(CCN4C5CCC4COC5)cn3)nn2CC(=O)NC(C)C)ccc1F [Example B-06, 2-[5-(4-fluoro-3-methoxyphenyl)-3-{5-[2-(3-oxa-8-azabicyclo[3.2.1]oct-8-yl)ethyl]pyridin-2-yl}-1H-1,2,4-triazol-1-yl]-N-(propan-2-yl)acetamide]	3.3
COc1cccc(-c2nc(-c3ccc(CCN4C5CCC4COC5)cn3)nn2CC(=O)NC(C)(C)C)c1 [Example B-07, N-tert-butyl-2-[5-(3-methoxyphenyl)-3-{5-[2-(3-oxa-8-azabicyclo[3.2.1]oct-8-yl)ethyl]pyridin-2-yl}-1H-1,2,4-triazol-1-yl]acetamide]	4.3
CC(C)NC(=O)Cn1nc(-c2ccc(CCN3C4CCC3COC4)cn2)nc1-c1ccc(F)c(Cl)c1 [Example B-08, 2-[5-(3-chloro-4-fluorophenyl)-3-{5-[2-(3-oxa-8-azabicyclo[3.2.1]oct-8-yl)ethyl]pyridin-2-yl}-1H-1,2,4-triazol-1-yl]-N-(propan-2-yl)acetamide]	2.8
CC(C)(C)NC(=O)Cn1nc(-c2ccc(CCN3C4CCC3COC4)cn2)nc1-c1cccc(Cl)c1 [Example B-09, N-tert-butyl-2-[5-(3-chlorophenyl)-3-{5-[2-(3-oxa-8-azabicyclo[3.2.1]oct-8-yl)ethyl]pyridin-2-yl}-1H-1,2,4-triazol-1-yl]acetamide]	2.2
CC(C)NC(=O)Cn1nc(-c2ccc(CCN3CCOCC3)cn2)nc1-c1cccc(Cl)c1 [Example B-10, 2-[5-(3-chlorophenyl)-3-{5-[2-(morpholin-4-yl)ethyl]pyridin-2-yl}-1H-1,2,4-triazol-1-yl]-N-(propan-2-yl)acetamide]	12
CC(C)(C)NC(=O)Cn1nc(-c2ccc(CCN3CCOCC3)cn2)nc1-c1cccc(Cl)c1 [Example B-11, N-tert-butyl-2-[5-(3-chlorophenyl)-3-{5-[2-(morpholin-4-yl)ethyl]pyridin-2-yl}-1H-1,2,4-triazol-1-yl]acetamide]	5.1
CC(C)NC(=O)Cn1nc(-c2ccc(CCN3CCOCC3)cn2)nc1-c1ccc(F)c(Cl)c1 [Example B-12, 2-[5-(3-chloro-4-fluorophenyl)-3-{5-[2-(morpholin-4-yl)ethyl]pyridin-2-yl}-1H-1,2,4-triazol-1-yl]-N-(propan-2-yl)acetamide]	6.3
COc1cc(-c2nc(-c3ccc(CCN4CCOCC4)cn3)nn2CC(=O)NC(C)C)ccc1F [Example B-13, 2-[5-(4-fluoro-3-methoxyphenyl)-3-{5-[2-(morpholin-4-yl)ethyl]pyridin-2-yl}-1H-1,2,4-triazol-1-yl]-N-(propan-2-yl)acetamide]	8.9
COc1cccc(-c2nc(-c3ccc(CCN4CCOCC4)cn3)nn2CC(=O)NC(C)(C)C)c1 [Example B-14, N-tert-butyl-2-[5-(3-methoxyphenyl)-3-{5-[2-(morpholin-4-yl)ethyl]pyridin-2-yl}-1H-1,2,4-triazol-1-yl]acetamide]	6.6
COc1cccc(-c2nc(-c3ccc(CCN4CCOCC4)cn3)nn2CC(=O)NC(C)C)c1 [Example B-15, 2-[5-(3-methoxyphenyl)-3-{5-[2-(morpholin-4-yl)ethyl]pyridin-2-yl}-1H-1,2,4-triazol-1-yl]-N-(propan-2-yl)acetamide]	31
COc1cccc(-c2nc(-c3ccc(CCN4C5CCC4COC5)cc3)nn2CC(=O)NC(C)C)c1 [Example B-17, 2-[5-(3-methoxyphenyl)-3-{4-[2-(3-oxa-8-azabicyclo[3.2.1]oct-8-yl)ethyl]phenyl}-1H-1,2,4-triazol-1-yl]-N-(propan-2-yl)acetamide]	1.4
COc1cccc(-c2nc(-c3ccc(CC(C)N4C5CCC4COC5)cc3)nn2CC(=O)NC(C)C)c1 (stereo not shown) [Example B-20, 2-[5-(3-methoxyphenyl)-3-{4-[2-(3-oxa-8-azabicyclo[3.2.1]oct-8-yl)propyl]phenyl}-1H-1,2,4-triazol-1-yl]-N-(propan-2-yl)acetamide]	0.43

Next, values leading:

IC50 [nM]	SMILES
5.3	COc1cccc(-c2nc(-c3ccc(CCN4CCOCC4)cc3)nn2CC(=O)NC(C)C)c1 [Example B-16, 2-[5-(3-methoxyphenyl)-3-{4-[2-(morpholin-4-yl)ethyl]phenyl}-1H-1,2,4-triazol-1-yl]-N-(propan-2-yl)acetamide]
7.2	COc1cccc(-c2nc(-c3ccc(CCN4CCOCC4)cc3F)nn2CC(=O)NC(C)C)c1 [Example B-18, 2-[3-{2-fluoro-4-[2-(morpholin-4-yl)ethyl]phenyl}-5-(3-methoxyphenyl)-1H-1,2,4-triazol-1-yl]-N-(propan-2-yl)acetamide]
6.9	COc1cccc(-c2nc(-c3ccc(CCN4CCOCC4)c(F)c3)nn2CC(=O)NC(C)C)c1 [Example B-19, 2-[3-{3-fluoro-4-[2-(morpholin-4-yl)ethyl]phenyl}-5-(3-methoxyphenyl)-1H-1,2,4-triazol-1-yl]-N-(propan-2-yl)acetamide]
10 to 100	COc1cccc(-c2nc(-c3ccc(CCN4CCCC4)cc3)nn2CC(=O)NC(C)C)c1 [Example B-21, 2-[5-(3-methoxyphenyl)-3-{4-[2-(pyrrolidin-1-yl)ethyl]phenyl}-1H-1,2,4-triazol-1-yl]-N-(propan-2-yl)acetamide]
10 to 100	COc1cccc(-c2nc(-c3ccc(CCN4CC=CCC4)cc3)nn2CC(=O)NC(C)C)c1 [Example B-22, 2-[3-{4-[2-(3,6-dihydropyridin-1(2H)-yl)ethyl]phenyl}-5-(3-methoxyphenyl)-1H-1,2,4-triazol-1-yl]-N-(propan-2-yl)acetamide]
10 to 100	COc1cccc(-c2nc(-c3ccc(CCN4CCC(C)CC4)cc3)nn2CC(=O)NC(C)C)c1 [Example B-23, 2-[5-(3-methoxyphenyl)-3-{4-[2-(4-methylpiperidin-1-yl)ethyl]phenyl}-1H-1,2,4-triazol-1-yl]-N-(propan-2-yl)acetamide]
100 to 1000	COc1cccc(-c2nc(-c3ccc(CCN4CCC(C#N)CC4)cc3)nn2CC(=O)NC(C)C)c1 [Example B-24, 2-[3-{4-[2-(4-cyanopiperidin-1-yl)ethyl]phenyl}-5-(3-methoxyphenyl)-1H-1,2,4-triazol-1-yl]-N-(propan-2-yl)acetamide]
10 to 100	COc1cccc(-c2nc(-c3ccc(CCN4CCCC(OC)C4)cc3)nn2CC(=O)NC(C)C)c1 (stereo not shown) [Example B-25, 2-[5-(3-methoxyphenyl)-3-{4-[2-(3-methoxypiperidin-1-yl)ethyl]phenyl}-1H-1,2,4-triazol-1-yl]-N-(propan-2-yl)acetamide]
100 to 1000	COc1cccc(-c2nc(-c3ccc(CCN4CCC(N(C)C)CC4)cc3)nn2CC(=O)NC(C)C)c1 [Example B-26, 2-[3-(4-{2-[4-(dimethylamino)piperidin-1-yl]ethyl}phenyl)-5-(3-methoxyphenyl)-1H-1,2,4-triazol-1-yl]-N-(propan-2-yl)acetamide]
10 to 100	COc1cccc(-c2nc(-c3ccc(CCN4CCC5CCCCC5C4)cc3)nn2CC(=O)NC(C)C)c1 (stereo not shown) [Example B-27, 2-[5-(3-methoxyphenyl)-3-{4-[2-(octahydroisoquinolin-2(1H)-yl)ethyl]phenyl}-1H-1,2,4-triazol-1-yl]-N-(propan-2-yl)acetamide]
< 10	COc1cccc(-c2nc(-c3ccc(CCN4CCSCC4)cc3)nn2CC(=O)NC(C)C)c1 [Example B-28, 2-[5-(3-methoxyphenyl)-3-{4-[2-(thiomorpholin-4-yl)ethyl]phenyl}-1H-1,2,4-triazol-1-yl]-N-(propan-2-yl)acetamide]

From patent publication US9522914B2, “Azole derivative” (TAISHO PHARMACEUTICAL CO., LTD, priority 2011, dated 2016)
